Read-outs that look alike come from different tables or passages of the source.
How the values were obtained:
[1] = tested on: IRF3 activation in PD-L1 low HEK293T STING reporter cell line; assay: IRF3 activation in HEK293T STING reporter cells, low PD-L1; assay type: cell-based, human; conditions: 20 hours, read-out: IRF Activation EC50 (nM), Low PD-L1
Method: (§1) HEK293T STING reporter cell line was purchased from Invivogen and expressed low level of PD-L1. This cell line was then engineered at Incyte Research Institute to overexpress human PD-L1. Both PD-L1 high and PD-L1 low HEK293T cell lines were plated at 100,000 cells/100 μL/well in 10% fetal calf serum-containing DMEM culture medium in a 96-well flat bottom plate. Serial dilutions of PD-L1 small molecule-conjugated STING agonists were then added to the corresponding wells, and incubated for 20 hours at 37° C. In a competition study setting, 1 μM of a PD-L1 small molecule was added in the corresponding wells to compete with the binding of PD-L1 small molecule-conjugated STING agonists. At the end of the incubation, the culture supernatants were carefully removed from each well, and the amount of IRF3 activation was determined by adding Quanti-Blue substrate in accordance with the manufacturer's protocol.
(§2) 293T-Dual hSTING-R232 (ISG/KI-IFNb) cells that were generated from 293T-Dual Null (ISG/KI-IFNb) cells by stable transfection of the R232 isoform of human STING were purchased from Invivogen (Invivogen #293d-r232).
(§3) This cell line expresses an ISRE-inducible SEAP (secreted embryonic alkaline phosphatase) reporter construct, which monitors the activation of interferon regulatory factor (IRF) and its binding to ISRE (IFN-stimulated response elements). These reporter cells express low level of PD-L1. Human PD-L1 was then overexpressed in these cells through stable transfection.
(§4) These 293T-Dual hSTING-R232 reporter cells as well as293T-Dual hSTING-R232 reporter cells overexpressing huPD-L1 were treated with various concentrations of STING compounds for 20 hours. After 20 hours, interferon regulatory factor (IRF) activity was assessed by measuring SEAP levels in the supernatant using QUNTI-Blue. EC50 values were generated by curve fit in Prism software.

[2] = tested on: IRF3 activation in PD-L1 high HEK293T STING reporter cell line; assay: IRF3 activation in HEK293T STING reporter cells, high PD-L1; assay type: cell-based, human; conditions: for EC50: 20 hours; for Potency shift: with compound P27 (1 μM) versus no competition
Method: as §1, §2, §3, §4

[3] = molecular target: T1, PD-L1 (Homo sapiens (Human), UniProt Q9NZQ7); assay: PD-L1 surface levels on HEK293T STING reporter cells, high PD-L1; assay type: cell-based
Method: To determine PD-L1 expression on HEK cells after treatment of PD-L1-small molecule conjugated STING agonists, cells were harvested at 20 hours post-treatment. Single cell suspensions were then stained with phycoerythrin-conjugated anti-PD-L1 antibody (BD Bioscience), and the PD-L1 expression were then analyzed by flow cytometry. Mean fluorescence intensity was used as the relative level of surface PD-L1 expression on cells (FIG. 1 and Table 6).
Also, cells were stained with PE-conjugated anti-human PD-L1 antibody to determine surface PD-L1 expression. Cell acquisition was performed on BD LSRFortessa X-20 (BD Biosciences). Data was analyzed using FlowJo software. IC50 values were calculated using Prism Software.

[4] = molecular target: T1, PD-L1; assay: Indirect whole blood PD-L1 internalization assay; assay type: cell-based; conditions: interferon γ, 18 hours, CD14+ gated
Method: To determine PD-L1 internalization in human whole blood, normal human blood (Biological Specialty Corp, Colmar. Pa.) was incubated in the presence or absence of a concentration range of test compounds and 1 ng/ml human interferon γ (R&D Systems Inc. Minn. Minn.) in a 96 well round bottom plate (Corning, Corning, N.Y.) for 18 hours at 37° C. Blood was then transferred into 96 well “2 ml Assay Block” (Corning, Corning N.Y.) and stained with PD-L1 (MIH1, eBioscience; or BD Biosciences San Jose, Calif.), CD14 (Life Technologies, Carlsbad, Calif.) for 30 minutes in the dark at room temperature. Whole Blood/red cells were lysed/fixed (lysis buffer BD Biosciences) for 5 minutes at 37° C. in dark and then centrifuged at 1600 RPM for 5 minutes and cells were transferred into 96 well round bottom plates (Corning). Cells were gated on CD14+ (BD Biosciences) and PD-L1 expression determined by mean fluorescence intensity (MFI) (BD LSRFortessa™ X-20). IC50 determination was performed by fitting the curve of compound percent inhibition versus the log of the compound concentration using the GraphPad Prism 7.0 software.

[5] = tested on: IRF3; assay: IRF3 activation assay in THP-1 Dual cells; assay type: cell-based; conditions: Homo sapiens, read-out: THP1 IRF3 EC50
How it was run: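 THP-1 Dual cells (100,000/well) were treated with serially diluted compound for 24 h at 37° C, 5% CO2. IRF3 reporter activity in supernatant was read with QUANTI-Blue as absorbance at 620-655 nm after 2 h, with untreated cells as negative control. EC50 came from fitting percent control activity against log concentration.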

[6] = high PD-L1 cells, read-out: IRF Activation EC50 (nM), High PD-L1
[7] = no competition, read-out: IRF Activation EC50 (nM), No competition
[8] = read-out: IRF Activation EC50 (nM), With compound P27 (1 μM), competition with compound P27 1 μM

T1 sequence (Q9NZQ7 19-290): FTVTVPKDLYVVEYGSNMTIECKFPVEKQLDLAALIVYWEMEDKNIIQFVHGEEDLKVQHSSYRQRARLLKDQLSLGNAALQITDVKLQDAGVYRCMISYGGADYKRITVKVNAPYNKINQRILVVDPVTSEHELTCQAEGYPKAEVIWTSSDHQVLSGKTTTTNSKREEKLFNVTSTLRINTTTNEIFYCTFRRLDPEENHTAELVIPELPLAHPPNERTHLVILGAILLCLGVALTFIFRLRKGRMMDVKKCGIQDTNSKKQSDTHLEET

Row | SMILES | EC50 [1] [nM] | EC50 [2, 6] [nM] | EC50 ([5]; THP-1, Table 4A) [nM] | also measured
1 | CCn1nc(C)cc1C(=O)Nc1nc2cc(C(N)=O)cc(OC)c2n1C/C=C/Cn1c(NC(=O)c2cc(C)nn2CC)nc2cc(C(N)=O)cc(OCCCNC(=O)CCNC(=O)OCc3ccc(NC(=O)[C@H](CCCNC(N)=O)NC(=O)[C@@H](NC(=O)CCCN4CCc5c(nc(C(=O)Nc6cccc(-c7cccc(NC(=O)c8nc9c(n8C)CCN(CCCC(=O)N[C@@H](CC(=O)O)C(=O)O)C9)c7Cl)c6Cl)n5C)C4)C(C)C)cc3)c21 [Example 3] | 200 to 1000 | < 50 |  | EC50 [2, 7]: < 50 nM; EC50 [2, 8]: 200 to 1000 nM; Potency shift [2]: >20
2 | CCn1nc(C)cc1C(=O)Nc1nc2cc(C(N)=O)cc(OC)c2n1C/C=C/Cn1c(NC(=O)c2cc(C)nn2CC)nc2cc(C(N)=O)cc(OCCCNC(=O)CCNC(=O)OCc3ccc(NC(=O)[C@H](CCCNC(N)=O)NC(=O)[C@@H](CC(=O)Cn4cc(CCNC(=O)[C@H](CC(=O)O)NC(=O)[C@H](CC(=O)O)NC(=O)[C@H](CCCNC(=N)N)NC(=O)[C@H](CC(=O)O)NC(=O)CCCN5CCc6c(nc(C(=O)Nc7cccc(-c8cccc(NC(=O)c9nc%10c(n9C)CCN(CCCC(=O)O)C%10)c8Cl)c7Cl)n6C)C5)nn4)C(C)C)cc3)c21 [Example 4] | 200 to 1000 | < 50 |  | EC50 [2, 7]: < 50 nM; EC50 [2, 8]: 200 to 1000 nM; Potency shift [2]: >20
3 | CCn1nc(C)cc1C(=O)Nc1nc2cc(C(N)=O)cc(OC)c2n1C/C=C/Cn1c(NC(=O)c2cc(C)nn2CC)nc2cc(C(N)=O)cc(OCCCNC(=O)[C@H](CC(=O)O)NC(=O)[C@H](CC(=O)O)NC(=O)[C@H](CCCNC(=N)N)NC(=O)[C@H](CC(=O)O)NC(=O)CCNC(=O)C3CCN(Cc4cc(C#N)c5oc(-c6cccc(-c7cccc(Nc8nc(C(F)F)nc9cc(CN%10CC[C@@H](O)C%10)cnc89)c7C)c6C)nc5c4)CC3)c21 [Example 8] | 50 to 200 | < 50 |  | IC50 [3]: 200 to 1000 nM
4 | CCn1nc(C)cc1C(=O)Nc1nc2cc(C(N)=O)cc(OCCCNC(=O)CCNC(=O)OCc3ccc(NC(=O)[C@H](CCCNC(N)=O)NC(=O)[C@@H](NC(=O)Cn4cc(CCNC(=O)[C@H](CC(=O)O)NC(=O)[C@H](CC(=O)O)NC(=O)[C@H](CCCNC(=N)N)NC(=O)[C@H](CC(=O)O)NC(=O)CCCN5CCc6c(nc(C(=O)Nc7cccc(-c8cccc(NC(=O)c9nc%10c(n9C)CCN(CCCC(=O)O)C%10)c8Cl)c7Cl)n6C)C5)nn4)C(C)C)cc3)c2n1C/C=C/Cn1c2nc(-c3cc(C)nn3CC)ncc2c2cc(C(N)=O)cc(OC)c21 [Example 9] | 200 to 1000 | < 50 |  | IC50 [3]: 50 to 200 nM
5 | CCn1nc(C)cc1C(=O)Nc1nc2cc(C(N)=O)cc(OC)c2n1C/C=C/Cn1c(NC(=O)c2cc(C)nn2CC)nc2cc(C(N)=O)cc(OCCCNC(=O)[C@H](CC(=O)O)NC(=O)[C@H](CC(=O)O)NC(=O)[C@H](CC(=O)O)NC(=O)[C@H](CC(=O)O)NC(=O)CCCN3CCc4c(nc(C(=O)Nc5cccc(-c6cccc(NC(=O)c7nc8c(n7C)CCN(CCCC(=O)O)C8)c6Cl)c5Cl)n4C)C3)c21 [Example 12] | 50 to 200 | < 50 |  | 
6 | Cc1c(NC(=O)c2ccc(CNCCO)cn2)cccc1-c1cccc(NC(=O)c2ccc(CNCCO)cn2)c1Cl [Example P7] |  |  |  | IC50 [4]: < 100 nM
7 | Cc1c(-c2nc3cc(CN4CC[C@H](C(=O)O)C4)cc(C#N)c3o2)cccc1-c1cccc(NC(=O)c2nc3c(n2C)CCN(C)C3)c1Cl [Example P11] |  |  |  | IC50 [4]: < 100 nM
8 | CCn1nc(C)cc1C(=O)Nc1nc2cc(C(N)=O)cc(OCCCNC(=O)CCC(=O)O)c2n1C/C=C/Cn1c2nc(-c3cc(C)nn3CC)ncc2c2cc(C(N)=O)cc(OCCCOC)c21 [Example S64, (E)-4-((3-((5-carbamoyl-1-(4-(6-carbamoyl-2-(1-ethyl-3-methyl-1H-pyrazol-5-yl)-8-(3-methoxypropoxy)-9H-pyrimido[4,5-b]indol-9-yl)but-2-en-1-yl)-2-(1-ethyl-3-methyl-1H-pyrazole-5-carboxamido)-1H-benzo[d]imidazol-7-yl)oxy)propyl)amino)-4-oxobutanoic acid] |  |  |  | EC50 ([5]; THP-1, Table 4C): 50 to 200 nM
9 | CCn1nc(C)cc1-c1ncc2c3cc(C(N)=O)cc(OCCCO)c3n(C/C=C/Cn3c4nc(-c5cc(C)nn5CC)ncc4c4cc(C(N)=O)cc(OCCCO)c43)c2n1 [Example S65, (E)-9,9′-(but-2-ene-1,4-diyl)bis(2-(1-ethyl-3-methyl-1H-pyrazol-5-yl)-8-(3-hydroxypropoxy)-9H-pyrimido[4,5-b]indole-6-carboxamide)] |  |  | ≤ 100 | 
10 | CCn1nc(C)cc1C(=O)Nc1nc2cc(C(N)=O)cc(OCCCOC(=O)NCCC(=O)O)c2n1C/C=C/Cn1c(NC(=O)c2cc(C)nn2CC)nc2cc(C(N)=O)c3ccoc3c21 [Example S66, (E)-3-(((3-((5-carbamoyl-1-(4-(5-carbamoyl-2-(1-ethyl-3-methyl-1H-pyrazole-5-carboxamido)-1H-benzofuro[6,7-d]imidazol-1-yl)but-2-en-1-yl)-2-(1-ethyl-3-methyl-1H-pyrazole-5-carboxamido)-1H-benzo[d]imidazol-7-yl)oxy)propoxy)carbonyl)amino)propanoic acid] |  |  | ≤ 100 | 
11 | CCn1nc(C)cc1C(=O)Nc1nc2cc(C(N)=O)c3ccoc3c2n1C/C=C/Cn1c2nc(-c3cc(C)nn3CC)ncc2c2cc(C(N)=O)cc(OC)c21 [Example S67, (E)-1-(4-(6-carbamoyl-2-(1-ethyl-3-methyl-1H-pyrazol-5-yl)-8-methoxy-9H-pyrimido[4,5-b]indol-9-yl)but-2-en-1-yl)-2-(1-ethyl-3-methyl-1H-pyrazole-5-carboxamido)-1H-benzofuro[6,7-d]imidazole-5-carboxamide] |  |  | ≤ 100 | 
12 | CCn1nc(C)cc1C(=O)Nc1nc2cc(C(N)=O)c3ccoc3c2n1C/C=C/Cn1c2nc(-c3cc(C)nn3CC)ncc2c2cc(C(N)=O)cc(OCCCOC)c21 [Example S68, (E)-1-(4-(6-carbamoyl-2-(1-ethyl-3-methyl-1H-pyrazol-5-yl)-8-(3-methoxypropoxy)-9H-pyrimido[4,5-b]indol-9-yl)but-2-en-1-yl)-2-(1-ethyl-3-methyl-1H-pyrazole-5-carboxamido)-1H-benzofuro[6,7-d]imidazole-5-carboxamide] |  |  | ≤ 100 | 
13 | CCn1nc(C)cc1C(=O)Nc1nc2cc(C(N)=O)c3ccoc3c2n1C/C=C/Cn1c2nc(-c3cc(C)nn3CC)ncc2c2cc(C(N)=O)cc(OCCCO)c21 [Example S69, (E)-1-(4-(6-carbamoyl-2-(1-ethyl-3-methyl-1H-pyrazol-5-yl)-8-(3-hydroxypropoxy)-9H-pyrimido[4,5-b]indol-9-yl)but-2-en-1-yl)-2-(1-ethyl-3-methyl-1H-pyrazole-5-carboxamido)-1H-benzofuro[6,7-d]imidazole-5-carboxamide] |  |  | ≤ 100 | 
